Results published in patent US5872107A, “Treatment of urogenital cancer with boron neutron capture therapy” (Emory University, priority 1997, dated 1999).

Assays:
[1] = typical nucleoside analogues; cited from earlier work
[2] = Toxicity study: weight change and survival of normal Swiss mice; assay type: in vivo, Swiss female mice; details: 30 mg/kg/day i.p.
Protocol: A toxicity study was conducted on 6-week-old Swiss female mice treated with CDU and CFAU at 30 mg/kg/day. The compounds were prepared in sterile DMSO and injected intraperitoneally (0.1 mL). DMSO and water were used as controls, with the same injection volume as that used for the CDU and CFAU solutions. The dosing schedule used was once a day for 6 days, and the mice were weighed biweekly for 28 days. Results shown in Table 3 somewhat correlate with the cytotoxicity assays in vitro.

Compound: [N-]=[N+]=N[C@H]1C[C@H](n2ccc(=O)[nH]c2=O)O[C@@H]1CO [AZddU, 3'-azido-2',3'-dideoxyuridine]
- reabsorption by the renal tubule (in words) [1]: not reabsorbed appreciably by the renal tubule

Compound: 5-o-carboranyl-1-(2-deoxy-2-fluoro-β-D-arabinofuranosyl)uracil [CFAU]
- weight loss after 1 week (in words) ([2]; CFAU and CDU compared): comparable weight loss after 1 week
- relative toxicity as monitored by survival outcome (in words) ([2]; CFAU versus CDU): more toxic than CDU
- day of death of mouse ([2]; one mouse of five): 7 days
- weight recovery at 4 weeks (in words) ([2]; surviving animals): all the surviving animals recovered their weight loss to control untreated levels
- % of weight gained or lost on week 1 ([2]; week 1, once a day for 6 days): -6.8%
- % of weight gained or lost on week 2 ([2]; week 2, once a day for 6 days): -0.4%
- % of weight gained or lost on week 3 ([2]; week 3, once a day for 6 days): 5.0%
- % of weight gained or lost on week 4 ([2]; week 4, once a day for 6 days): 9.6%
- survival at week 4, alive/total ([2]; week 4, once a day for 6 days): 4/5
- survival at week 4 (%) ([2]; week 4, once a day for 6 days, 40320 min): 80%

Compound: Cc1cn([C@H]2C[C@H](N=[N+]=[N-])[C@@H](CO)O2)c(=O)[nH]c1=O [AZT, 3'-azido-3'-deoxythymidine]
- reabsorption by the renal tubule (in words) [1]: not reabsorbed appreciably by the renal tubule
